Assay results: PubChem BioAssay AID2060889 (Molecular Pharmacology Branch, DTP, NCI, 2025)

System: LG0567-F671-PDC complex spheroids viability
Assay: Anticancer human tumor LG0567-F671-PDC patient-derived lung adenocarcinoma cell line growth inhibition [RAS]
Conditions: for IC50: curve of first compound; for viability, T/C: stronger effect = lower value
Text: RAS pathway inhibitors in Combinations in Complex Spheroids
A high-throughput screen of multi-cell type tumor spheroids was designed to identify active combinations of RAS pathway inhibitors and targeted small molecules. Complex spheroids include a stromal component modeled by human endothelial cells (HUVEC) and fibroblasts modeled by human mesenchymal stem cells (MSCs). The concentration ranges selected for each drug and investigational agent were based upon clinically achievable concentrations if the clinical Cmax of the agent was known.
Compounds. The drugs and investigational agents: abemaciclib (NSC768073), cobimetinib (NSC768068), divarasib (GDC6063, NSC841802), docetaxel (NSC628503), GDC-1971 (RLY-1971, NSC841576), gemcitabine (NSC613327), inavolisib (NSC800729), ipatasertib (NSC767898), KB-0742 (NSC834161), MRTX-1133 (NSC836407), osimertinib (NSC779217), RMC-4630 (NSC839698), RMC-6236 (NSC851965), RMC-6291 (NSC852671), Ro-3306 (NSC812927), sapanisertib (NSC764658), SN-38 (NSC673596), staurosporine (NSC755774), SY5609 (NSC837396), and tovorafenib (DAY101, NSC766906), were obtained from the National Cancer Institute (NCI) Developmental Therapeutics Program Chemical Repository. The FDA-approved anticancer drug set is available from the NCI Developmental Therapeutics Program. […] The stock solutions were prepared in dimethyl sulfoxide (DMSO, Sigma-Aldrich, St. Louis, MO, cat. D2650) at 800-fold the tested concentration and stored at -70 degrees C prior to their use. All drugs and investigational agents were tested over a range starting from a high concentration at or near the clinical Cmax and decreasing in half-log increments. If the clinical Cmax for an agent had not been determined, the highest concentration tested was 10 microM.
Cell Culture. All cells were maintained in an incubator at 37 degrees C and 5% CO2 with 95% humidity. The PDC lines were cultured according to standard operating procedures established by the NCI PDMR. All PDCs were thawed and cultured in Matrigel-coated flasks prepared with a working solution of 1X Ham's F-12 nutrient mix, without supplementation (Invitrogen, Waltham, MA, cat. 11765054), 100 U/mL penicillin-streptomycin (Invitrogen, cat. 15140122), and 2.5% Matrigel (Corning Inc., Corning, NY, cat. 354248) for the first three passages. The 362531-283-R-J2-PDC and 782815-120-R-J1-PDC lines were cultured in 6C/Colon 1B media, which includes advanced DMEM/F-12 (Thermo Fisher Scientific, cat. 12634028), 10 mM HEPES (Thermo Fisher Scientific, cat. 15630080), 1X GlutaMAX supplement (Thermo Fisher Scientific, cat. 35050061), 0.1 mg/mL primocin (InvivoGen, San Diego, CA, cat. ant-pm-2), 10% defined fetal bovine serum, heat inactivated (HyClone Laboratories Inc., Logan, UT, cat. SH30070.03HI), 50% L-WRN conditioned media (ATCC, cat. CRL-3276), 1.25 mM N-Acetyl-L-cysteine (Sigma-Aldrich, cat. A9165), 10 mM nicotinamide (Sigma-Aldrich, cat. N0636), 1X B-27 supplement (Thermo Fisher Scientific, cat. 17504044), 1X N-2 supplement (Thermo Fisher Scientific, cat. 17502048), 50 ng/mL human EGF (Thermo Fisher Scientific, cat. PHG0311), and 10 microM Y-27632 dihydrochloride (Tocris Bioscience, cat. 1254). The K12877-001-R-J1-PDC line was cultured in 6I media, which includes all 6C/Colon 1B media plus 10 ng/mL human FGF-10 (PeproTech, cat. 100-26), 1 ng/mL human FGF-2 (PeproTech, cat. 100-18B), 1 µM prostaglandin E2 (Tocris Bioscience, cat. 2296), […] hydrocortisone (Sigma-Aldrich, cat. H4001), and […] bovine insulin (Sigma-Aldrich, cat. I6634). The K86415-001-R-J1-PDC line was cultured in 6D media, which includes all 6C/Colon 1B media components minus the L-WRN conditioned media. The 485176-168-R4-J1-PDC was cultured in PANC media, which includes all 6C/Colon 1B media plus 100 ng/mL human FGF-10 (PeproTech, cat. 100-26), 500 nM SB-431542 (Selleckchem, cat. S1067), and 10 nM gastrin (Tocris Bioscience, cat. 3006). […]

[1] = second compound 0.0316 µM, first compound 0.0316 µM
[2] = second compound 0.0316 µM, first compound 0.1 µM
[3] = second compound 0.0316 µM, first compound 0.316 µM
[4] = second compound 0.0316 µM, first compound 1 µM
[5] = second compound 0.1 µM, first compound 0.0316 µM
[6] = second compound 0.1 µM, first compound 0.1 µM
[7] = second compound 0.1 µM, first compound 0.316 µM
[8] = second compound 0.1 µM, first compound 1 µM
[9] = second compound 0.316 µM, first compound 0.0316 µM
[10] = second compound 0.316 µM, first compound 0.1 µM
[11] = second compound 0.316 µM, first compound 0.316 µM
[12] = second compound 0.316 µM, first compound 1 µM
[13] = second compound 1 µM, first compound 0.0316 µM
[14] = second compound 1 µM, first compound 0.1 µM
[15] = second compound 1 µM, first compound 0.316 µM
[16] = second compound 1 µM, first compound 1 µM
[17] = second compound 3.16 µM, first compound 0.0316 µM
[18] = second compound 3.16 µM, first compound 0.1 µM
[19] = second compound 3.16 µM, first compound 0.316 µM
[20] = second compound 3.16 µM, first compound 1 µM
[21] = second compound 10 µM, first compound 0.0316 µM
[22] = second compound 10 µM, first compound 0.1 µM
[23] = second compound 10 µM, first compound 0.316 µM
[24] = second compound 10 µM, first compound 1 µM
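Also: spheroids exposed to compound for seven days before readout.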
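For IC50 in this document: luminescence signal used as a proxy for viable cells.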

Question: Which results are given for `CCN1CCN(Cc2ccc(Nc3ncc(F)c(-c4cc(F)c5nc(C)n(C(C)C)c5c4)n3)nc2)CC1` + C#Cc1c(F)ccc2cc(O)cc(-c3ncc4c(N5CC6CCC(C5)N6)nc(OCC56CCCN5CC(F)C6)nc4c3F)c12?
Answer: IC50 (second compound 0.0316 µM): > 1000 nM; IC50 (second compound 0.1 µM): > 1000 nM; IC50 (second compound 0.316 µM): 13.1 nM; IC50 (second compound 1 µM): < 3.16 nM; IC50 (second compound 3.16 µM): < 3.16 nM; IC50 (second compound 10 µM): < 3.16 nM; viability, T/C (second compound 0.0316 µM, first compound 0.00316 µM): 83.8%; viability, T/C (second compound 0.0316 µM, first compound 0.01 µM): 77.1%; viability, T/C [1]: 72.8%; viability, T/C [2]: 71.8%; viability, T/C [3]: 61.1%; viability, T/C [4]: 50.3%; viability, T/C (second compound 0.1 µM, first compound 0.00316 µM): 75.9%; viability, T/C (second compound 0.1 µM, first compound 0.01 µM): 75%; viability, T/C [5]: 62.2%; viability, T/C [6]: 59.1%; viability, T/C [7]: 57.4%; viability, T/C [8]: 50.7%; viability, T/C (second compound 0.316 µM, first compound 0.00316 µM): 54.4%; viability, T/C (second compound 0.316 µM, first compound 0.01 µM): 52.6%; viability, T/C [9]: 46.8%; viability, T/C [10]: 44.4%; viability, T/C [11]: 36%; viability, T/C [12]: 39.1%; viability, T/C (second compound 1 µM, first compound 0.00316 µM): 37.8%; viability, T/C (second compound 1 µM, first compound 0.01 µM): 34.5%; viability, T/C [13]: 30.9%; viability, T/C [14]: 27.1%; viability, T/C [15]: 28.4%; viability, T/C [16]: 27.3%; viability, T/C (second compound 3.16 µM, first compound 0.00316 µM): 20.7%; viability, T/C (second compound 3.16 µM, first compound 0.01 µM): 18.2%; viability, T/C [17]: 20%; viability, T/C [18]: 17%; viability, T/C [19]: 19.7%; viability, T/C [20]: 18.2%; viability, T/C (second compound 10 µM, first compound 0.00316 µM): 11.4%; viability, T/C (second compound 10 µM, first compound 0.01 µM): 10.8%; viability, T/C [21]: 13.1%; viability, T/C [22]: 10.7%; viability, T/C [23]: 13.4%; viability, T/C [24]: 16.4%

Question: With `C[C@@H](NC(=O)c1ncnc(N)c1Cl)c1ncc(C(=O)Nc2cc(C(F)(F)F)c(Cl)cn2)s1` + C#Cc1c(F)ccc2cc(O)cc(-c3ncc4c(N5CC6CCC(C5)N6)nc(OCC56CCCN5CC(F)C6)nc4c3F)c12 as the molecule, how does the IC50 (second compound 0.0316 µM) read?
Answer: > 10000 nM

Question: What about the IC50 (second compound 0.1 µM) of the same molecule?
Answer: > 10000 nM

Question: What about the IC50 (second compound 0.316 µM) of the same molecule?
Answer: 7540 nM

Question: What about the IC50 (second compound 1 µM) of the same molecule?
Answer: < 31.6 nM

Question: What about the IC50 (second compound 3.16 µM) of the same molecule?
Answer: < 31.6 nM

Question: And the IC50 (second compound 10 µM)?
Answer: < 31.6 nM

Question: And the viability, T/C [1]?
Answer: 99.1%

Question: What about the viability, T/C [2] of the same molecule?
Answer: 100%

Question: And the viability, T/C [3]?
Answer: 125%

Question: And the viability, T/C [4]?
Answer: 103%

Question: And the viability, T/C (second compound 0.0316 µM, first compound 3.16 µM)?
Answer: 94.9%

Question: And the viability, T/C (second compound 0.0316 µM, first compound 10 µM)?
Answer: 56.1%

Question: And the viability, T/C [5]?
Answer: 81.2%

Question: What about the viability, T/C [6] of the same molecule?
Answer: 105%

Question: And the viability, T/C [7]?
Answer: 88.8%

Question: What about the viability, T/C [8] of the same molecule?
Answer: 92.8%

Question: And the viability, T/C (second compound 0.1 µM, first compound 3.16 µM)?
Answer: 82%

Question: What about the viability, T/C (second compound 0.1 µM, first compound 10 µM) of the same molecule?
Answer: 57%

Question: What about the viability, T/C [9] of the same molecule?
Answer: 73.5%

Question: What about the viability, T/C [10] of the same molecule?
Answer: 80.9%

Question: And the viability, T/C [11]?
Answer: 74.2%

Question: And the viability, T/C [12]?
Answer: 67.7%

Question: What about the viability, T/C (second compound 0.316 µM, first compound 3.16 µM) of the same molecule?
Answer: 67%

Question: And the viability, T/C (second compound 0.316 µM, first compound 10 µM)?
Answer: 44.7%

Question: What about the viability, T/C [13] of the same molecule?
Answer: 40.5%

Question: What about the viability, T/C [14] of the same molecule?
Answer: 43.7%

Question: And the viability, T/C [15]?
Answer: 52.5%

Question: What about the viability, T/C [16] of the same molecule?
Answer: 42.5%

Question: And the viability, T/C (second compound 1 µM, first compound 3.16 µM)?
Answer: 51.8%

Question: And the viability, T/C (second compound 1 µM, first compound 10 µM)?
Answer: 34%

Question: And the viability, T/C [17]?
Answer: 26.1%

Question: And the viability, T/C [18]?
Answer: 28.6%

Question: And the viability, T/C [19]?
Answer: 29.2%

Question: And the viability, T/C [20]?
Answer: 25.6%

Question: What about the viability, T/C (second compound 3.16 µM, first compound 3.16 µM) of the same molecule?
Answer: 26.6%

Question: What about the viability, T/C (second compound 3.16 µM, first compound 10 µM) of the same molecule?
Answer: 23.2%

Question: And the viability, T/C [21]?
Answer: 14.9%

Question: And the viability, T/C [22]?
Answer: 17.1%

Question: And the viability, T/C [23]?
Answer: 16.5%

Question: What about the viability, T/C [24] of the same molecule?
Answer: 19.4%

Question: And the viability, T/C (second compound 10 µM, first compound 3.16 µM)?
Answer: 21.2%

Question: What about the viability, T/C (second compound 10 µM, first compound 10 µM) of the same molecule?
Answer: 17.9%
